Values of other authors in patent publication US20170216178A1, “Cosmetic or Dermatological Composition Containing Retinaldehyde and DNA” (GALEPHAR PHARMACEUTICAL RESEARCH, INC., priority 2016, published 2017).

Tests used:
P. acnes = details: against P. acnes
skin cancer = details: mice
skin = details: topical; compared with retinoids
comedones = details: topical; compared with retinoic acid (tretinoin); rhino mouse model

Question: Which intra-follicular antibacterial activity (P. acnes) does the source give for O=C(O)CCCCCCCC(=O)O [azelaic acid] here?
Answer: The intra-follicular antibacterial activity was “showed an intra-follicular antibacterial activity”.

Question: Which “potential for the development of skin cancer” value (skin cancer) does the source give for O=C(OOC(=O)c1ccccc1)c1ccccc1 [benzoyl peroxide] here?
Answer: The value was “may increase the potential for the development of skin cancer”.

Question: For CC1=C(/C=C/C(C)=C/C=C/C(C)=C/C=O)C(C)(C)CCC1 [retinaldehyde], which skin tolerance (skin) is on record?
Answer: The skin tolerance was “significantly higher skin tolerance”.

Question: And the comedolytic action (comedones)?
Answer: Its comedolytic action is “identical to that of retinoic acid”.
